One block for each molecule: values may come before it. Calls of active or inactive are those of the source.
Legend:
[1] = molecular target: T1, Corticotropin-releasing factor receptor 2/Corticotropin-releasing factor-binding protein (Homo sapiens, UniProt P24387+Q13324); assay: activators of CRF receptor 2 with binding protein – uHTS hits, confirmation (AID 602473); type: functional; settings: read-out: EC50_Mean
T1 sequence (Q13324 whole entry): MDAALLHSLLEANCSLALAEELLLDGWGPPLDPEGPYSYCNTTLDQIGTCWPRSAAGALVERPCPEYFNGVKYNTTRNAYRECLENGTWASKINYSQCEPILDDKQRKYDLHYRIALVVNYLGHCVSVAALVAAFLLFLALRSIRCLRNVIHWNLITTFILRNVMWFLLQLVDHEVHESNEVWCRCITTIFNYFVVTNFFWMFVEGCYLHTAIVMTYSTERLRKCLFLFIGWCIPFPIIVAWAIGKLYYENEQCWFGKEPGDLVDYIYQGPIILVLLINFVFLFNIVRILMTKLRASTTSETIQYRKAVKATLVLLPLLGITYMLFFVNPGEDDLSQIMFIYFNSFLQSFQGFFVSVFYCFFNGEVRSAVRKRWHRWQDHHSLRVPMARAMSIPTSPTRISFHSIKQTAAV
T1 sequence (P24387 whole entry): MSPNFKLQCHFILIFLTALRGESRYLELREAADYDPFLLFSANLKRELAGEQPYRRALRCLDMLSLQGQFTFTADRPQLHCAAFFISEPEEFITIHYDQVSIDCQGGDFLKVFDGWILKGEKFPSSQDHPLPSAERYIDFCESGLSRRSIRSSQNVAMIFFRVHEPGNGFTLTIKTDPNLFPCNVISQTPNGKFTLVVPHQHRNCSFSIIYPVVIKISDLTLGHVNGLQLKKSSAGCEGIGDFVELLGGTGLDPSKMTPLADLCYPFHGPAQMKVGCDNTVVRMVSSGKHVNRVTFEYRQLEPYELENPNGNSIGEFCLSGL

[2] = molecular target: T1, Corticotropin-releasing factor receptor 2/Corticotropin-releasing factor-binding protein; assay: Dose Response confirmation of uHTS hits for small molecule antagonists of the CRF-binding protein and CRF-R2 receptor complex.; type: functional; settings: read-out: IC50_Mean
[3] = test system: INS1; assay: INS-1E survival protection against cytokine death – cell-based, luminescence, retest, dose response (AID 449756); type: functional; settings: Rattus norvegicus;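 also: cell death triggered by IL-1 beta plus TNF-alpha plus IFN-gamma mixture; protective hits raise ATP signal compared with cytokine alone wells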
[4] = Luminescence Cell-Based Dose Retest to Confirm Inhibitors of Cancer Stem Cells. [Related pubchem assays (depositor defined):AID2717, AID2721]; type: functional; settings: Homo sapiens
[5] = molecular target: T2, Rac GTPase-activating protein 1 (Homo sapiens, UniProt Q9H0H5); assay: blockers of MgcRacGAP-driven Rac1 GTP hydrolysis – biochemical, ADP Hunter fluorescence, primary and confirmatory, confirmation (AID 624330); type: functional
T2 sequence (Q9H0H5 whole entry): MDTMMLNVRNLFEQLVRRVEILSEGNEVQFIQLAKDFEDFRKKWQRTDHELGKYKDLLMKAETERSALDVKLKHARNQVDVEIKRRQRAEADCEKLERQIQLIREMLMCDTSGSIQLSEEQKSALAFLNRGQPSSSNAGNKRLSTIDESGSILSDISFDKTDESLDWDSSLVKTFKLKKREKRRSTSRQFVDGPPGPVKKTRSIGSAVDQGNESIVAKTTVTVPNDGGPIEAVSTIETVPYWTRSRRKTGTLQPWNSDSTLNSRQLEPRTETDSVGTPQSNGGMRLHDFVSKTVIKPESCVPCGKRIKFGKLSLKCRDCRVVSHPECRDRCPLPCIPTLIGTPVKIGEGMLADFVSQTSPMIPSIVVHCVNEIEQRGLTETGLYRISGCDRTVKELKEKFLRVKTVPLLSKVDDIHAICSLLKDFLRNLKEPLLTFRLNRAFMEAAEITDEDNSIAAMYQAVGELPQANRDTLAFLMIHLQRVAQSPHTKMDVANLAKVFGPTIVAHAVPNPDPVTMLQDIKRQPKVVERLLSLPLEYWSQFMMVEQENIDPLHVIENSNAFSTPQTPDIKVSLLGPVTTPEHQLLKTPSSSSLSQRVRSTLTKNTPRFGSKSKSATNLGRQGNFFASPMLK

[6] = molecular target: Cytochrome P450 3A4 (Homo sapiens, UniProt P08684);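 also: CYP3A4 tested as one member of a cytochrome P450 panel screen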
Chain of Cytochrome P450 3A4 (P08684 whole entry): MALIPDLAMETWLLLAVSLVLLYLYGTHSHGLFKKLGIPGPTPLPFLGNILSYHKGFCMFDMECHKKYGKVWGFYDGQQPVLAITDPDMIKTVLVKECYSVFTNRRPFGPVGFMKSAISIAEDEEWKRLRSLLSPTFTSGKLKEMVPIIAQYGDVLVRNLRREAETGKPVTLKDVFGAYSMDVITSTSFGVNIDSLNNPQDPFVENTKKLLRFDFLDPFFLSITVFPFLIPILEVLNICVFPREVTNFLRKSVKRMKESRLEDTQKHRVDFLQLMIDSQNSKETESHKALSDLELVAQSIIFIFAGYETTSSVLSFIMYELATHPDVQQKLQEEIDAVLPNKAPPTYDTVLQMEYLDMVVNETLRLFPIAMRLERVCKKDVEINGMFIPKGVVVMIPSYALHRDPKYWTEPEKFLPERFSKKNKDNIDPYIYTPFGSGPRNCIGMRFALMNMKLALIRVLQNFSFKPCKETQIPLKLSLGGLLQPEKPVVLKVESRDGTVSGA

[7] = molecular target: Cytochrome P450 2C9 (Homo sapiens, UniProt P11712)
Chain of Cytochrome P450 2C9 (P11712 whole entry): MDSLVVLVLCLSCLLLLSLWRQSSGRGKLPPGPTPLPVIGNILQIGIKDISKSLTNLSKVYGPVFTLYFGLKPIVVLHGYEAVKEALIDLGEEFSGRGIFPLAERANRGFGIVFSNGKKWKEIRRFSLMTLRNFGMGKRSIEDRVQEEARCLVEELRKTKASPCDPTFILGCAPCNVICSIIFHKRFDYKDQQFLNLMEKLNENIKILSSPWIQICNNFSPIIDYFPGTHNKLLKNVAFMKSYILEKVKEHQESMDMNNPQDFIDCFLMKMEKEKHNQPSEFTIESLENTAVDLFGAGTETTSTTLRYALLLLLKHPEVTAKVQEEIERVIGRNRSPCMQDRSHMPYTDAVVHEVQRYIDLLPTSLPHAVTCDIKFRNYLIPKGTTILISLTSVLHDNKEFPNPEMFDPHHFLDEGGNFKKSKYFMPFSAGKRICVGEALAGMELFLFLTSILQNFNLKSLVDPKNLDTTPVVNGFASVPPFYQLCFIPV

[8] = molecular target: Cytochrome P450 2C19 (Homo sapiens, UniProt P33261); assay: Cytochrome panel assay with activity outcomes. Panel member name: p450-cyp2c19 Compounds with AC50 equal or less than 10 uM are considered active; type: functional; settings: read-out: AC50
Chain of Cytochrome P450 2C19 (P33261 whole entry): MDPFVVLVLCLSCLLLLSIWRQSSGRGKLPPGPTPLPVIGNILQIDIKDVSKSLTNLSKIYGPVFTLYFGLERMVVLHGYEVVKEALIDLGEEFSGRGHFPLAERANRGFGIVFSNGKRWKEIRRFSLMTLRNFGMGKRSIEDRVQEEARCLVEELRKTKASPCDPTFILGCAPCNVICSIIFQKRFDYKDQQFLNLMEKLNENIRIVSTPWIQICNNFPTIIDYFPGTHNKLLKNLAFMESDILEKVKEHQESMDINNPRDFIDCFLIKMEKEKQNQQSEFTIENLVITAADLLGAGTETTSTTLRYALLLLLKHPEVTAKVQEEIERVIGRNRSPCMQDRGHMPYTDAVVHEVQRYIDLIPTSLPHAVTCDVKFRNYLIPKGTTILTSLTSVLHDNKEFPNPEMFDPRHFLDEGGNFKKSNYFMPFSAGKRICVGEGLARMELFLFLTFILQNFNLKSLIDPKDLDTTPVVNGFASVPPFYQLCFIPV

[9] = molecular target: T3, Cytochrome P450 1A2 (Homo sapiens, UniProt P05177);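 also: PubChem cytochrome P450 panel assay, CYP1A2 panel member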
T3 sequence (P05177 whole entry): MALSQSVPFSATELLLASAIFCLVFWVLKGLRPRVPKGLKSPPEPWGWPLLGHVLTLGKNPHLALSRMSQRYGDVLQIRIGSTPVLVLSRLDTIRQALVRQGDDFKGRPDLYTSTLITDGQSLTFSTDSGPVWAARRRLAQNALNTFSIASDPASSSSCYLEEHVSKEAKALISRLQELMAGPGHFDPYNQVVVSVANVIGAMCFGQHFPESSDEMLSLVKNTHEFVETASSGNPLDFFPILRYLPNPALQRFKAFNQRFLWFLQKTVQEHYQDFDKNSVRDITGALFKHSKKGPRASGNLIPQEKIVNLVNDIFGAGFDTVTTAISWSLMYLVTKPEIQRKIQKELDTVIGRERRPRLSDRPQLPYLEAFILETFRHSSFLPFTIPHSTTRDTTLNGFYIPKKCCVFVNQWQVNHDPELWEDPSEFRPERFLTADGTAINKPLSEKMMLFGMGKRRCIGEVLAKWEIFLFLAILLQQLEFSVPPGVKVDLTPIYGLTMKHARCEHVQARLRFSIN

[10] = molecular target: Cytochrome P450 2D6 (Homo sapiens, UniProt P10635);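 also: CYP2D6 member of a cytochrome P450 panel assay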
Chain of Cytochrome P450 2D6 (P10635 whole entry): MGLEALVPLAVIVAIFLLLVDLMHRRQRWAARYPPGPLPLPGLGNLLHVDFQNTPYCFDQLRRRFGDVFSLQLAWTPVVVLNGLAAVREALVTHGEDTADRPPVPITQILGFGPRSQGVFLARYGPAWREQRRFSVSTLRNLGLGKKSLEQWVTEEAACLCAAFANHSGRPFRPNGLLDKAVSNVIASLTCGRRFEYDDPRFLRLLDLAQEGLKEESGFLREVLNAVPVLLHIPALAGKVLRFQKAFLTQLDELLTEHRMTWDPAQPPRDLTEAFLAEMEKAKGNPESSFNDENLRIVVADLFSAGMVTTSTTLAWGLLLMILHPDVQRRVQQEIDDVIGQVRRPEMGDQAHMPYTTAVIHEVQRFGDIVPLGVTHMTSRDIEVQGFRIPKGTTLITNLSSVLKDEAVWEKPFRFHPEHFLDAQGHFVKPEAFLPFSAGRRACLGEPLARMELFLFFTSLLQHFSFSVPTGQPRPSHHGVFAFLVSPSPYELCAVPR

[11] = test system: Streptococcus; assay: GAS UMAA2166 growth inhibition – luminescence, BacTiterGlo, counter-screen for streptokinase expression inhibitor project, dose response (AID 1915); type: functional, organism-based;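 also: potency for reduction of bacterial viability or growth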
[12] = test system: Streptococcus sp. 'group A'; assay: Streptococcus pyogenes SK(-)GAS viability under kanamycin – luminescence, BacTiterGlo, confirmation, counter-screen for streptokinase expression inhibitor project, dose response (AID 1900); type: functional, organism-based

EC50 [1]: > 53 µM (inactive)
IC50 [2]: > 47.1 µM (inactive)
SMILES: Cc1ccc(Cl)cc1N(CC(=O)N1CCOCC1)S(C)(=O)=O

SMILES: COc1ncnc(OC)c1S(=O)(=O)Nc1ccc(C(F)(F)F)cc1
AC50 [3]: > 260 µM (inactive)

SMILES: CC(C)(C)OC(=O)NCc1ccc(NC(=O)c2[nH]cnc2C(=O)NCCCNC(=O)c2nc[nH]c2C(=O)Nc2ccc(CNC(=O)OC(C)(C)C)cc2)cc1
AC50 [4]: 1.75 µM (active)

SMILES: Cc1cccc(-c2cc3nc4c(c(NCc5ccco5)n3n2)CCCC4)c1
AC50 [4]: 7.11 µM (active)

IC50 [5]: 118 µM (active)
SMILES: COc1ccc(N)cc1NC(=O)CN1CCOCC1

IC50 [5]: 102 µM (active)
SMILES: COc1ncnc2c1ncn2CCCNc1ccc(C)c(C)c1

AC50 [6]: 14.1 µM (inconclusive)
AC50 [7]: 0.0224 µM (inconclusive)
IC50 [5]: 30.9 µM (active)
SMILES: OCCN(/C=N/C1=NN(c2cccc(C(F)(F)F)c2)CC1)CCO

EC50 [1]: > 53 µM (inactive)
IC50 [2]: > 47.1 µM (inactive)
SMILES: CC(C)CN(CC(C)C)C(=O)CCCC(=O)N(CC(C)C)CC(C)C

SMILES: O=c1cc(N2CCCCC2)c(-c2ccccc2)nn1Cc1ccc(Cl)cc1
AC50 [4]: 2.33 µM (active)

IC50 [5]: 75.2 µM (active)
SMILES: COc1ccc(NC2CCCN(C(=O)c3cccc(N4CCNC4=O)c3)C2)cc1 (configuration not stated)

IC50 [5]: 19.4 µM (active)
SMILES: Nc1ccc2[nH]c(S)nc2c1

SMILES: Cc1ccc(S(=O)(=O)N2CCN(C(=O)COc3ccc(NC(=O)c4ccco4)cc3)CC2)cc1
AC50 [4]: > 195 µM (inactive)

SMILES: O=C(c1cc(-c2cccc(Cl)c2)nc2ccccc12)N1CCN(c2ccccn2)CC1
AC50 [3]: 14.8 µM (active)

SMILES: O=c1c2ccccc2nc(/C=C/c2ccccc2)n1-c1ccccc1O
AC50 [4]: 4.57 µM (active)

EC50 [1]: > 53 µM (inactive)
IC50 [2]: > 47.1 µM (inactive)
SMILES: COc1ccc(CCNC(=O)C(=O)NCC2OCCN2S(=O)(=O)c2ccc(OC)cc2)cc1 (configuration not stated)

SMILES: COc1cc2c(cc1O)[C@H]1Cc3ccc(OC)c(O)c3CN1CC2
AC50 [6]: 12.6 µM (inconclusive)
AC50 [8]: 7.94 µM (inconclusive)
AC50 [9]: 15.8 µM (inconclusive)

IC50 [5]: 117 µM (active)
SMILES: CCN(Cc1ccncc1)Cc1ccc(OC)cc1OC

IC50 [5]: 163 µM (active)
SMILES: COc1ccccc1CNCC(=O)NCc1ccc(C)cc1

EC50 [1]: > 53 µM (inactive)
IC50 [2]: > 47.1 µM (inactive)
SMILES: O=C(NCC1CCCO1)c1onc(CSc2cccc3ccccc23)c1C(=O)O (configuration not stated)

AC50 [9]: 15.8 µM (inconclusive)
AC50 [10]: 5.01 µM (inconclusive)
SMILES: CCC/C=C(\CCC)C(NC(=O)Cc1ccccc1)c1ccc(C(=O)OC)cc1 (configuration not stated)

SMILES: C=C(CC[C@@H](O)C(C)(C)O)[C@H]1CC[C@]2(C)[C@@H]1CC[C@@H]1[C@@]3(C)CCC(=O)C(C)(C)C3CC[C@]12C (some centres not stated)
AC50 [4]: 1.75 µM (active)

SMILES: CC(=O)Oc1ccc(-c2csc(Nc3cccc(C)n3)n2)cc1
AC50 [4]: 6.58 µM (active)

EC50 [1]: > 53 µM (inactive)
IC50 [2]: > 47.1 µM (inactive)
SMILES: CC(=O)NCc1ccc(C(=O)O)cc1

IC50 [5]: 75.4 µM (active)
SMILES: Cc1ccc(OCCN2CCN(C)CC2)c([N+](=O)[O-])c1

EC50 [1]: > 53 µM (inactive)
IC50 [2]: > 47.1 µM (inactive)
SMILES: Cc1onc(-c2ccccc2)c1C(=O)N/N=C/c1cc(Br)c(Br)o1

SMILES: FC(F)(F)c1cc(CCN2C(S)=NC[C@@H]2CC2CCCCC2)cc(C(F)(F)F)c1
EC50 [11]: > 150 µM (not active)
AC50 [4]: 5.79 µM (active)
EC50 [12]: 5.13 µM (active)

SMILES: CCOc1ccc(C(=O)CCC(=O)N2CCN(c3ccc(O)cc3)CC2)cc1
AC50 [4]: 5.57 µM (active)

AC50 [7]: 25.1 µM (inconclusive)
AC50 [9]: 25.1 µM (inconclusive)
SMILES: CC(C)(C)OC(=O)NCCc1nnc(SCC(=O)Nc2cccc(Cl)c2)o1

IC50 [5]: 108 µM (active)
SMILES: COc1ccc(N2CCC(CN=C(S)Nc3cc(C)cc(C)c3)C2)cc1 (configuration not stated)

AC50 [7]: 39.8 µM (inconclusive)
IC50 [5]: 24.5 µM (active)
SMILES: COc1ccc2oc(=O)c(C(=O)Oc3ccc(NC(C)=O)cc3)cc2c1

AC50 [9]: 5.62 µM (inconclusive)
AC50 [10]: 3.16 µM (inconclusive)
SMILES: O=C(COc1cccc(NC(=O)c2cccc([N+](=O)[O-])c2)c1)c1ccc(Br)cc1

SMILES: Cc1c(C(=O)Nc2nc(-c3ccccn3)cs2)oc2ccccc12
AC50 [3]: 5.62 µM (active)

EC50 [1]: > 53 µM (inactive)
IC50 [2]: > 47.1 µM (inactive)
SMILES: Cc1ccnc(NC(=O)c2cccc(S(=O)(=O)N3CCCC3)c2)c1

AC50 [7]: 3.16 µM (inconclusive)
AC50 [9]: 6.31 µM (inconclusive)
AC50 [10]: 39.8 µM (inconclusive)
SMILES: CCC/C=C(\CCC)C(NS(=O)(=O)c1ccc(-c2ccccc2)cc1)c1ccc(C(=O)OC)cc1 (configuration not stated)

EC50 [1]: > 53 µM (inactive)
IC50 [2]: > 47.1 µM (inactive)
SMILES: CN(C)C(=O)C1CC(=O)OC12CCCCC2 (configuration not stated)

AC50 [9]: 20 µM (inconclusive)
AC50 [10]: 20 µM (inconclusive)
SMILES: O=C(Oc1ccccc1)N1CCC[C@@]2(CCN(c3ccncc3)C2)C1

EC50 [1]: > 53 µM (inactive)
IC50 [2]: > 47.1 µM (inactive)
SMILES: CCC(CC)NC(=O)CC(c1ccccc1)c1ccccc1

EC50 [1]: > 53 µM (inactive)
IC50 [2]: > 47.1 µM (inactive)
SMILES: CC1C(=O)N(Cc2cn(CCC3OCCCO3)nn2)CCS(=O)(=O)N1Cc1ccc(-c2ccc(Cl)cc2)cc1 (configuration not stated)

EC50 [1]: > 53 µM (inactive)
IC50 [2]: > 47.1 µM (inactive)
SMILES: Cc1nn(C)cc1CN(C)C(=O)c1ccc(OC2CCN(Cc3ccccn3)CC2)cc1

EC50 [1]: > 53 µM (inactive)
IC50 [2]: > 47.1 µM (inactive)
SMILES: Cc1c(Cl)c([N+](=O)[O-])nn1CCCC(=O)Nc1cc(Oc2ccccc2)cc([N+](=O)[O-])c1

EC50 [1]: > 53 µM (inactive)
IC50 [2]: > 47.1 µM (inactive)
SMILES: CCOC(=O)c1cc2c(=O)c3cc(C)ccc3oc2nc1C

Source: ChEMBL document CHEMBL1201862, “PubChem BioAssay data set” (2004)
